In patent US20240000872A1, “NOVEL BACTERIOPHAGE THAT LYSES ACINETOBACTER GENUS BACTERIA HAVING RESISTANCE TO ANTIBIOTICS” (priority 2020, published 2024):

Test system: Acinetobacter baumannii strains
Assay: Antibiotic susceptibility test (CLSI disk diffusion test method, read per CLSI 2016)
Type: cell-based
Description: Strain identification was performed using a kit such as AT 32 GN system (bioMérieux, Marcy l'Etoile, France). […] In Table 2 below, S, I, and R are the results obtained by evaluating susceptibility to the antibacterial agents, in which ‘S’ means susceptible, ‘I’ means intermediate, and ‘R’ means resistant.
Strain identification was performed using a kit such as ATB 32 GN system (bioMédrieux, Marcy l'Etoile, France). […] In Table 6 below, S, I, and R are the results obtained by evaluating susceptibility to the antibacterial agents, in which ‘S’ means susceptible, ‘I’ means intermediate, and ‘R’ means resistant.
Strain identification was performed using a kit such as ATB 32 GN system (bioMérieux, Marcy l'Etoile, France). […] In Table 10 below, S, I, and R are the results obtained by evaluating susceptibility to the antibacterial agents, in which ‘S’ means susceptible, T means intermediate, and ‘R’ means resistant.

With `NCC[C@H](O)C(=O)N[C@@H]1C[C@H](N)[C@@H](O[C@H]2O[C@H](CN)[C@@H](O)[C@H](O)[C@H]2O)[C@H](O)[C@H]1O[C@H]1O[C@H](CO)[C@@H](O)[C@H](N)[C@H]1O` [Amikacin, amikacin] the antibiotic susceptibility class (host strain YMC14/01/C29) was “R”, the antibiotic susceptibility class (host strain YMC14/01/IP122) was “R” and the antibiotic susceptibility class (host strain YMC14/01/L8) was “R”. For the same compound, the antibiotic susceptibility class (host strain YMC14/01/P31) was “R”, the antibiotic susceptibility class (host strain YMC14/01/P117) was “R” and the antibiotic susceptibility class (host strain YMC14/01/P224) was “R”. For the same compound, the antibiotic susceptibility class (host strain YMC14/01/P727) was “R”, the antibiotic susceptibility class (host strain YMC14/01/P728) was “R” and the antibiotic susceptibility class (host strain YMC14/01/R130) was “R”. The antibiotic susceptibility class (host strain YMC14/01/R160) was “R”, the antibiotic susceptibility class (host strain YMC14/01/R198) was “R” and the antibiotic susceptibility class (host strain YMC14/01/R257) was “S”. For the same compound, the antibiotic susceptibility class (host strain YMC14/01/R270) was “R”, the antibiotic susceptibility class (host strain YMC14/01/R324) was “R” and the antibiotic susceptibility class (host strain YMC14/01/R443) was “R”. For the same compound, the antibiotic susceptibility class (host strain YMC14/01/R451) was “R”, the antibiotic susceptibility class (host strain YMC14/01/R560) was “R” and the antibiotic susceptibility class (host strain YMC14/01/R617) was “R”. The antibiotic susceptibility class (host strain YMC14/01/R671) was “R”, the antibiotic susceptibility class (host strain YMC14/01/R732) was “R” and the antibiotic susceptibility class (host strain YMC14/01/R767) was “R”. The antibiotic susceptibility class (host strain YMC14/01/R904) was “R”, the antibiotic susceptibility class (host strain YMC14/01/R905) was “R” and the antibiotic susceptibility class (host strain YMC14/01/R921) was “S”. The antibiotic susceptibility class (host strain YMC14/01/R941) was “R”, the antibiotic susceptibility class (host strain YMC14/01/R958) was “R” and the antibiotic susceptibility class (host strain YMC14/01/R1006) was “R”. For the same compound, the antibiotic susceptibility class (host strain YMC14/01/R1199) was “R”, the antibiotic susceptibility class (host strain YMC14/01/R1659) was “R” and the antibiotic susceptibility class (host strain YMC14/01/R1722) was “R”. For the same compound, the antibiotic susceptibility class (host strain YMC14/01/R1752) was “R”, the antibiotic susceptibility class (host strain YMC14/01/R2429) was “R” and the antibiotic susceptibility class (host strain YMC14/01/R2572) was “R”. For the same compound, the antibiotic susceptibility class (host strain YMC14/01/R2855) was “R”, the antibiotic susceptibility class (host strain YMC14/01/R2945) was “R” and the antibiotic susceptibility class (host strain YMC14/01/R3007) was “R”. For the same compound, the antibiotic susceptibility class (host strain YMC14/01/R3129) was “R”, the antibiotic susceptibility class (host strain YMC14/01/R3317) was “R” and the antibiotic susceptibility class (host strain YMC14/01/R3474) was “R”. For the same compound, the antibiotic susceptibility class (host strain YMC14/01/R3574) was “R”, the antibiotic susceptibility class (host strain YMC14/01/U313) was “R” and the antibiotic susceptibility class (host strain YMC14/01/U318) was “R”. The antibiotic susceptibility class (host strain YMC14/02/L18) was “R”, the antibiotic susceptibility class (host strain YMC14/02/P47) was “R” and the antibiotic susceptibility class (host strain YMC14/02/R1860) was “S”. For the same compound, the antibiotic susceptibility class (host strain YMC14/02/R2417) was “R”, the antibiotic susceptibility class (host strain YMC14/02/R2599) was “S” and the antibiotic susceptibility class (host strain YMC14/02/R2668) was “R”. The antibiotic susceptibility class (host strain YMC14/02/R2758) was “R”, the antibiotic susceptibility class (host strain YMC14/02/R2781) was “R” and the antibiotic susceptibility class (host strain YMC14/02/R3106) was “R”. For the same compound, the antibiotic susceptibility class (host strain YMC14/02/R3419) was “R”, the antibiotic susceptibility class (host strain YMC14/02/U1607) was “S” and the antibiotic susceptibility class (host strain YMC14/03/L9) was “S”. For the same compound, the antibiotic susceptibility class (host strain YMC14/03/P471) was “S”, the antibiotic susceptibility class (host strain YMC14/03/R122) was “S” and the antibiotic susceptibility class (host strain YMC14/03/R217) was “R”. For the same compound, the antibiotic susceptibility class (host strain YMC14/03/R380) was “R”, the antibiotic susceptibility class (host strain YMC14/03/R618) was “S” and the antibiotic susceptibility class (host strain YMC14/03/R2144) was “R”. For the same compound, the antibiotic susceptibility class (host strain YMC14/03/U4616) was “R”, the antibiotic susceptibility class (host strain YMC14/04/R1078) was “S” and the antibiotic susceptibility class (host strain YMC14/04/R1080) was “S”. The “antibiotic susceptibility S/I/R” value (host strain YMC14/06/R2359) was “R”, the “susceptibility category (S/I/R)” value (host strain YMC14/06/R2359) was “R” and the “antibiotic susceptibility S/I/R” value (host strain YMC14/08/R1169) was “R”. The “susceptibility category (S/I/R)” value (host strain YMC14/08/R1169) was “R”, the “antibiotic susceptibility S/I/R” value (host strain YMC14/08/T90) was “R” and the “susceptibility category (S/I/R)” value (host strain YMC14/08/T90) was “R”. For the same compound, the “antibiotic susceptibility S/I/R” value (host strain YMC15/02/R436) was “R”, the “susceptibility category (S/I/R)” value (host strain YMC15/02/R436) was “R” and the “antibiotic susceptibility S/I/R” value (host strain YMC15/02/T28) was “R”. The “susceptibility category (S/I/R)” value (host strain YMC15/02/T28) was “R”, the “antibiotic susceptibility S/I/R” value (host strain YMC15/03/R1604) was “R” and the “susceptibility category (S/I/R)” value (host strain YMC15/03/R1604) was “R”. The “antibiotic susceptibility S/I/R” value (host strain YMC15/09/R1869) was “R”, the “susceptibility category (S/I/R)” value (host strain YMC15/09/R1869) was “R” and the “antibiotic susceptibility S/I/R” value (host strain YMC16/01/P11) was “R”. The “susceptibility category (S/I/R)” value (host strain YMC16/01/P11) was “R”, the “antibiotic susceptibility S/I/R” value (host strain YMC16/01/R123) was “R” and the “susceptibility category (S/I/R)” value (host strain YMC16/01/R123) was “R”.
